According to article PMC8480326, “Chemoenzymatic glycan-selective remodeling of a therapeutic lysosomal enzyme with high-affinity M6P-glycan ligands. Enzyme substrate specificity is the name of the game” (Chemical Science, 2021):
Entries after “also recorded” stand apart in the source; their conditions may differ.

Columns and labels:
CI-MPR = target: CI-MPR; design: method as in PMID 30843882; details: rhGAA with higher M6P content; read-out: apparent KD; cited from earlier work
[1] = system: GAA-deficient multinucleated myotubes (KO); assay: Cell-associated GAA activity in treated GAA KO myotubes; type: cell-based, mouse; details: 5 μM for 24 hours, n = 5, versus untreated cells
Description: To evaluate the effect of the Endo-A (69) and Endo-F3 (70) remodeled rhGAA in the disease-relevant muscle cells, we used GAA-deficient multinucleated myotubes (KO) as an in vitro cell model system for Pompe disease.[48,49] These myotubes are formed from conditionally immortalized myoblasts derived from the GAA knockout mice; unlike myoblasts, the differentiated myotubes replicate the primary defect of the disease, namely, the enlargement of glycogen-laden lysosomes.
The available anti-human GAA antibodies detected a strong non-specific band in mouse muscle cells as indicated by its presence in both WT and GAA-deficient cell (Fig. 4b, right panel). Previous studies have shown that the mature 76 kDa form of GAA has a higher affinity and activity towards glycogen.[31,50] […]
BIAcore T200 evaluation software. rhGAA enzyme activity assay. The enzyme activity was assayed by using the substrate 4-methylumbelliferyl-α-D-glucopyranoside (4-MUG) (Sigma-Aldrich) which generates fluorescence on digestion.[9, 10] […] The reaction was monitored at 0 min, 1 min, 2 min, 5 min, 10 min and 15 min by taking 20 μL of aliquot and add ing 50 μL of stop buffer (100 mM glycine/NaOH, pH 11). Fluorescence was measured by a spectrophotometer with 355 nm excitation and 460 nm emission, and the error bar was based on three independent assays. […]

[2] = system: GAA-deficient multinucleated myotubes (KO); assay: Lamp1 immunostaining of myotubes (lysosomal swelling); type: cell-based, mouse; details: 5 μM for 24 hours, confocal images
Description: The effect of the Endo-A and Endo-F3 remodeled rhGAA was confirmed by immunostaining of myotubes with Lamp1. […] The therapeutic potential of the M6P glycan-remodeled rhGAA in lysosomal glycogen reduction and reversal of muscle pathology will be further evaluated in Pompe disease animal models in future studies.
Fig. 5 Effect of the therapeutic enzymes on lysosomal swelling and glycogen content in GAA KO (KO) myotubes. […] Nuclei are stained with DAPI (blue). Bar: 10 μm. (b) Graph illustrates glycogen levels measured in cell lysates from WT, untreated- and treated KO myotubes. […] Statistical significance was determined by one-way ANOVA; graph represents mean ± SD. **p <0.01; ****p <0.0001; ns – statistically insignificant.
(§1) Measurement of cell-associated GAA activity. The GAA activity in the cells was measured by using 4-methylumbelliferyl-α-D-glucopyranoside (4-MU- α-glucopyranoside; Sigma-Aldrich #M9766) as the fluorogenic GAA substrate as described.[13] […] Fluorescence was measured on a multi-label plate reader (TECAN, SPARK 10M) at 360 nm excitation/465 nm emission.
(§2) Measurement of the glycogen content. The glycogen content was measured as the amount of glucose released after glycogen digestion with Aspergillus Niger amyloglucosidase (Sigma-Aldrich). […]

[3] = target: T1, Recombinant human IGF-II R (CI-MPR) (Homo sapiens, UniProt P11717); assay: SPR binding to immobilized CI-MPR; details: SPR, immobilized CI-MPR
T1 construct: purchased R&D Systems
Description: Surface Plasmon Resonance (SPR) Measurements. SPR measurements were performed on a Biacore T200 instrument (GE Healthcare). Recombinant human IGF-II R (CI-MPR) was purchased
from R&D Systems. Approximately 7000 resonance units (RU) of CI-MPR was immobilized on a
CM5 sensor chip in a sodium acetate buffer (25 μg/mL, pH 4.0) at 25 °C, using the amine coupling kit
provided by the manufacturer. Mannose 6-phosphate containing glycopeptides or glycoproteins were
determined at 25 °C under a flow rate of 10 μL/min. HBS-P+ buffer (10 mM HEPES, 150 mM NaCl,
0.05% surfactant P20, pH 7.4) was used as sample buffer and running buffer. Association was
measured for 3 min and dissociation for 10 min at same flow rate (10 μL/min). The surface
and glycoprotein analytes flowed over an immobilized chip with 2-fold serial dilution of the highest
concentration of 4 μM (for glycopeptides) or 1 μM (for RNase B) or 250 nM (for rhGAA).
analyses were performed by global fitting of the binding data to a 1:1 Langmuir binding model using

[4] = system: GAA-deficient multinucleated myotubes (KO); assay: Western blot (anti-human GAA) of treated muscle cell lysates; type: cell-based, mouse; details: 5 μM for 24 hours, Western blot with anti-human GAA antibodies
Description: The available anti-human GAA antibodies detected a strong non-specific band in mouse muscle cells as indicated by its presence in both WT and GAA-deficient cell (Fig. 4b, right panel). Previous studies have shown that the mature 76 kDa form of GAA has a higher affinity and activity towards glycogen.[31,50]
Fig. 4 Effect of the therapeutic enzymes in GAA KO (KO) myotubes. […] GAA activity in cell lysates of wild type (WT) myotubes was measured for comparison. The KO cells were treated for 24 hours with 5 μM of each of the recombinant enzyme; n = 5 for each condition. Statistical significance was determined by one-way ANOVA; graph represents mean ± SD. *p <0.05; ****p <0.0001; ns – statistically insignificant. (b) Western blot analysis (with anti-human GAA antibodies) of muscle cell lysates treated with the recombinant enzymes; GAPDH was used as loading control. […]
as §1, §2

[5] = system: GAA-deficient multinucleated myotubes (KO); assay: Western blot of lysosomal (LAMP1) and endosomal (Rab5) markers; type: cell-based, mouse; details: 5 μM for 24 hours

T1 sequence (P11717 41-2491): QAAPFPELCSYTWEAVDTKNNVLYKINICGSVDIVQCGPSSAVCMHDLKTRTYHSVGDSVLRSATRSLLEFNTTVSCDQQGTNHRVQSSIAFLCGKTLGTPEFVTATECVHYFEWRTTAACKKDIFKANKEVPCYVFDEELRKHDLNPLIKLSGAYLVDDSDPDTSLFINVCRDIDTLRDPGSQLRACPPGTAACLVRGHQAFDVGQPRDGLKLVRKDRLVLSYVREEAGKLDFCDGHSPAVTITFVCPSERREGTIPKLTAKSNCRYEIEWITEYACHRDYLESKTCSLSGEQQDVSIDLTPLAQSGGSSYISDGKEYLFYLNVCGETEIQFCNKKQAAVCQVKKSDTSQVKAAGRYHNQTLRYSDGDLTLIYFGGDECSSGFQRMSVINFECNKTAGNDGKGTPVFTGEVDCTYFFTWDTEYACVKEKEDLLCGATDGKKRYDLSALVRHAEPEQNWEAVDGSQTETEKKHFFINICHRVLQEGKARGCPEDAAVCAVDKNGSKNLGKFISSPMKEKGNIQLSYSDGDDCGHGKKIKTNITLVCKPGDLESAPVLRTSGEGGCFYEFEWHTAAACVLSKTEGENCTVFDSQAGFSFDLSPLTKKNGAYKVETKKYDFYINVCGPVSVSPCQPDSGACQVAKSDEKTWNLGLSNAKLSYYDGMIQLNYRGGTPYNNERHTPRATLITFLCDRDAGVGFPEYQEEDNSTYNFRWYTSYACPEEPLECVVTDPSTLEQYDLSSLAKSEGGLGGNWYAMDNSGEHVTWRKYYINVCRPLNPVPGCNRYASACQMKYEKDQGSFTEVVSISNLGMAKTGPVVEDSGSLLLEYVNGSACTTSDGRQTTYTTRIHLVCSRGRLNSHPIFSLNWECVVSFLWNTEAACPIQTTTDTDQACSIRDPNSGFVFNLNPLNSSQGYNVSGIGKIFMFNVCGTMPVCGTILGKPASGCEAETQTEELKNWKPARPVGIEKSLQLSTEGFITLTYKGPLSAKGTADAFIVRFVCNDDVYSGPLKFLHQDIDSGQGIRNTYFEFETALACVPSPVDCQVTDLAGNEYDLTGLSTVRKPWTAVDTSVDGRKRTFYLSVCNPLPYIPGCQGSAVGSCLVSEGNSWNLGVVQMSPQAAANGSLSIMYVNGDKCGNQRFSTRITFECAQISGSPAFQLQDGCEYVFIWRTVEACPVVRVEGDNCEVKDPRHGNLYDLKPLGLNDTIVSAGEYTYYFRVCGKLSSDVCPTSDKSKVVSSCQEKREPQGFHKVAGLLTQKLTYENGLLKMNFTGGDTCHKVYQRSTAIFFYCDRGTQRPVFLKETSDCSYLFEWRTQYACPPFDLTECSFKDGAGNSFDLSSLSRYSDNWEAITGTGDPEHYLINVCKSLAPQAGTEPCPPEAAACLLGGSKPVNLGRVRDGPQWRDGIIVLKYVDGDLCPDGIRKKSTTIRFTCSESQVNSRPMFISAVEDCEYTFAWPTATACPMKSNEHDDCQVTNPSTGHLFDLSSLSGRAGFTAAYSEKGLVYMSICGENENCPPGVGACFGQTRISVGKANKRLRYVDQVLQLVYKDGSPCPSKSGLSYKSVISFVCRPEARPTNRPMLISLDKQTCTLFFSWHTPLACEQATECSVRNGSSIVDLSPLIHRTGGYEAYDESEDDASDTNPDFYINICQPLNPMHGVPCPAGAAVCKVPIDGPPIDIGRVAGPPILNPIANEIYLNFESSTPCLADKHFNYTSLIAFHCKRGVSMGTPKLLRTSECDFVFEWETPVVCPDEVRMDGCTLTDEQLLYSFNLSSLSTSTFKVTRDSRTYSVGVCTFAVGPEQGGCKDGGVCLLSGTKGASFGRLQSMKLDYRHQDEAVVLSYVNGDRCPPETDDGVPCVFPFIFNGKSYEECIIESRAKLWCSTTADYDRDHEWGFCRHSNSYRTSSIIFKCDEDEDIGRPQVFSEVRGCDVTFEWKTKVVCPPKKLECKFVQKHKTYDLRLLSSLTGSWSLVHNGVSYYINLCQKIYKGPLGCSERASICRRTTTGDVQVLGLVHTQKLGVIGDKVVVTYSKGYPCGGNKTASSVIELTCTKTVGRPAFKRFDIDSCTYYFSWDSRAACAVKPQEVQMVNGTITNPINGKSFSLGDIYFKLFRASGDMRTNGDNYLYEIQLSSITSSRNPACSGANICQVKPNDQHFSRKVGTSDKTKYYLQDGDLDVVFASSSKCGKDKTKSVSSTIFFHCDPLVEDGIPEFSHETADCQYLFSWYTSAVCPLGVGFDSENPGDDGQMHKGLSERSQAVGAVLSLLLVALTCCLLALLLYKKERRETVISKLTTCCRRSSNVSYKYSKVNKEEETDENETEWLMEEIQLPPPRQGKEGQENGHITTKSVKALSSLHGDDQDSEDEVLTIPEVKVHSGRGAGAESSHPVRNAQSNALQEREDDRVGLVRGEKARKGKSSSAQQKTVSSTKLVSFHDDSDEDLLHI

Substance: ATB200: a novel rhGAA carrying a higher M6P content
- Kd (CI-MPR): 2 to 4 nM

Substance: Lumizyme: recombinant human acid α-glucosidase (rhGAA; Lumizyme, Sanofi Genzyme) used for treatment of Pompe disease
- GAA activity in cell lysates [1]: only a slight increase (statistically insignificant)
- enlarged LAMP1-positive lysosomes [2]: Enlarged lysosomes were seen; also recorded: can be detected
- Kd ([3]; 25 °C, average of three independent experiments): 14 ± 3.7 nM
- processed, mature lysosomal form of rhGAA (76 kDa) in cells [4]: barely detectable
- levels of endosomal (Rab5) and lysosomal (LAMP1) markers [5]: remained the same as in the untreated GAA-deficient cells

Substance: deglycosylated rhGAA: rhGAA treated with wild-type Endo-A to remove the high-mannose N-glycans including the M6P glycans
- affinity for CI-MPR (in words) [3]: lost its binding affinity
